Measured values from paper PMC9469208 (Journal of Medicinal Chemistry, 2022).
Like-named read-outs stand apart in the source and are kept apart here.

Columns and labels:
[1] = biological target: T1, GlyRA1 (Homo sapiens, UniProt P23415); format: cell-based
T1 construct: purchased Cerep (Eurofins), Poitiers, France; Promega P450-Glo; in-house COS-7 uptake assays
T1 sequence (P23415 29-457): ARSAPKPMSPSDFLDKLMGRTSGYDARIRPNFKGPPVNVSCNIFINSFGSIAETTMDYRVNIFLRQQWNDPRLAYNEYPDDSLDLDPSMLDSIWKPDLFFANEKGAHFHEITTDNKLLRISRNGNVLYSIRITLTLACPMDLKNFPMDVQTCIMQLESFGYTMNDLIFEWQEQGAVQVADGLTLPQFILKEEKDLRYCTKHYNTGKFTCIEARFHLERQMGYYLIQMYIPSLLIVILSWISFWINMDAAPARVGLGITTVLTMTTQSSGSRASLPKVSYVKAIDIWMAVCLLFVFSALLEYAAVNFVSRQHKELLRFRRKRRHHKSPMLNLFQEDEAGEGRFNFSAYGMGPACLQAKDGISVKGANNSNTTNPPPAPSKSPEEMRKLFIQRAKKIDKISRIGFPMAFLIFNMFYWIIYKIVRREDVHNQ

[2] = system: motor coordination of mice; conditions: mouse, in vivo, ip; cited from earlier work
[3] = system: 6 Hz (32 mA) seizures in mice; conditions: mouse, in vivo; cited from earlier work
[4] = system: maximal electroshock seizures in mice; conditions: mouse, in vivo; cited from earlier work
[5] = biological target: hCav3.2 (Homo sapiens, UniProt O95180); assay: cell-based
Chain of hCav3.2 (O95180 whole entry): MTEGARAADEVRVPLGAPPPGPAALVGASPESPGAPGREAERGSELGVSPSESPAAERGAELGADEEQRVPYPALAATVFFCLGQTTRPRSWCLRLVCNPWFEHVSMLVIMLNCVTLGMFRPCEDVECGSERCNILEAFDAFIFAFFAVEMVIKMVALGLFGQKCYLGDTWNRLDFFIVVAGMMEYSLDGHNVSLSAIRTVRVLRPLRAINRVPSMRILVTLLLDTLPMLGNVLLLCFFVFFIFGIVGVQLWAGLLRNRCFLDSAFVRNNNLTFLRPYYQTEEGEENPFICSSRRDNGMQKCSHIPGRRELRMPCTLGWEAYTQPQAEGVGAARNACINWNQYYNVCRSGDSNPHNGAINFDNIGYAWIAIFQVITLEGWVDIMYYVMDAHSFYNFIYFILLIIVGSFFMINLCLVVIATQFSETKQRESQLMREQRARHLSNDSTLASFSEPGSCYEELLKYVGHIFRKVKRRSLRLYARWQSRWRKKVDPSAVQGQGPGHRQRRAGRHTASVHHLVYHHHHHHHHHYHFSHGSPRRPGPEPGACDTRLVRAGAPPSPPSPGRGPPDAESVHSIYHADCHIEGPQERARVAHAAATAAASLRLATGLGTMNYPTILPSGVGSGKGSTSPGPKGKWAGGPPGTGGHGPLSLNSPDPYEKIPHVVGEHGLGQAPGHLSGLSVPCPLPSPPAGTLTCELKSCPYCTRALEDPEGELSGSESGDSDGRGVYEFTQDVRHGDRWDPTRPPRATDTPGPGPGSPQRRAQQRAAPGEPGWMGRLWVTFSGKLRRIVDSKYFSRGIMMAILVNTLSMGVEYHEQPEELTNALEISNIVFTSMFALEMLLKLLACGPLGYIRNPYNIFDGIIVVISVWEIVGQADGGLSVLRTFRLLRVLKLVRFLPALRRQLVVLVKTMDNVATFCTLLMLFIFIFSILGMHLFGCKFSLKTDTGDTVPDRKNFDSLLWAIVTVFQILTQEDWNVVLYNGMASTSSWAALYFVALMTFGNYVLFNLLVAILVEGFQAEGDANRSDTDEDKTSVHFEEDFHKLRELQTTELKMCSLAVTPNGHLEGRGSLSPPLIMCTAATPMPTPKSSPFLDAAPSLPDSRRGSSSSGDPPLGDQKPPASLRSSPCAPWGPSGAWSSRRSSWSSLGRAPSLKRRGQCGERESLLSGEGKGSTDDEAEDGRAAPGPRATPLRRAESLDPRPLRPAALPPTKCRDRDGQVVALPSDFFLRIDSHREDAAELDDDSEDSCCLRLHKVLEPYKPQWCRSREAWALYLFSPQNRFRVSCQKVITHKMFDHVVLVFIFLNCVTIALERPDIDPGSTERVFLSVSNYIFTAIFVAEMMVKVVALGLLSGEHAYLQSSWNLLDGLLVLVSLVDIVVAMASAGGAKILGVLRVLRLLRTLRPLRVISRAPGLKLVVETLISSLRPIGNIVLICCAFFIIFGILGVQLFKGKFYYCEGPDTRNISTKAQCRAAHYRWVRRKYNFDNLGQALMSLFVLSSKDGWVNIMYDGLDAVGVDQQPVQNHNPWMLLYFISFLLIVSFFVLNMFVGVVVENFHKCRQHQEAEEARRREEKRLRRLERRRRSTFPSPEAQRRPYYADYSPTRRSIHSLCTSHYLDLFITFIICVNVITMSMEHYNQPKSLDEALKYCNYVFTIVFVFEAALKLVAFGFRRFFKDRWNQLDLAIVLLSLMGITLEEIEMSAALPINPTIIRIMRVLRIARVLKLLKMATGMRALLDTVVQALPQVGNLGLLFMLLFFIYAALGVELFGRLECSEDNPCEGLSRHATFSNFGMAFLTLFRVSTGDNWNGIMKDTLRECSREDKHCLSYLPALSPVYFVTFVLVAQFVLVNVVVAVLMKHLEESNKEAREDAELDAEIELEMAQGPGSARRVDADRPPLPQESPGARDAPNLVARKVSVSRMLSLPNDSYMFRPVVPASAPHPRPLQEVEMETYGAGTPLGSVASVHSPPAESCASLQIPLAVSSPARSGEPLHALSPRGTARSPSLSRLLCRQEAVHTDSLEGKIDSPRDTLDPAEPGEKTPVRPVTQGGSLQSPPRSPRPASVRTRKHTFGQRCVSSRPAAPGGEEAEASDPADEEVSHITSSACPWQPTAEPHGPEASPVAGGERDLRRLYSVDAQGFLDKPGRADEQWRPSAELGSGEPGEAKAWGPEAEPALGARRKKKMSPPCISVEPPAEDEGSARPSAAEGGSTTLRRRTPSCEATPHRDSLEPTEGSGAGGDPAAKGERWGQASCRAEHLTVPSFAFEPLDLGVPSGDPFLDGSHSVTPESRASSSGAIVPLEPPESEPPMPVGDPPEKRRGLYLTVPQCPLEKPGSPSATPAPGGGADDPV

[6] = system: PTZ-induced kindling in mice; conditions: VPA 150 mg/kg i.p. (positive control)
[7] = system: PTZ-induced seizures in mice; conditions: mouse, in vivo; cited from earlier work

With NCC(=O)O [Glycine, reference compound] the “GlyRA1 agonist, % Control, Mean” value [1] was 89.99%, the “GlyRA1 agonist, % Control, n1” value [1] was 92.59% and the “GlyRA1 agonist, % Control, n2” value [1] was 87.38%.

In the case of CC(C(=O)NCc1ccccc1F)N1C(=O)CCC1=O (stereo not shown) [II], the “TD50 (rotarod)” value [2] is listed as 300.9 (256.7–352.6) mg/kg.

In the case of COC[C@@H](NC(C)=O)C(=O)NCc1ccccc1 [LCS, lacosamide], the “ED50 (6 Hz 32 mA)” value [3] is listed as 5.3 (3.5–7.8) mg/kg and the “ED50 (MES)” value [4] is listed as 9.2 (8.5–10.0) mg/kg.

For CC[C@@H](C(N)=O)N1CCCC1=O [LEV, levetiracetam], the “ED50 (MES)” value [4] is listed as over 500 mg/kg.

Molecule COCC(=O)O[C@]1(CCN(C)CCCc2nc3ccccc3[nH]2)CCc2cc(F)ccc2[C@@H]1C(C)C [Mibefradil, reference compound] has an inhibition at 30 µM ([5]; read-out: hCav3.2 % Inhibition, Mean) of 95.5%, an inhibition at 30 µM ([5]; read-out: hCav3.2 % Inhibition, n1) of 96.1% and an inhibition at 30 µM ([5]; read-out: hCav3.2 % Inhibition, n2) of 94.8%.

For CCCC(CCC)C(=O)O [VPA, valproic acid], the “ED50 (6 Hz 32 mA)” value [3] is given as 130.6 (117.6–145.2) mg/kg, the “effect on kindling development” value [6] is given as “suppressed kindling development” and the “ED50 (scPTZ)” value [7] is given as 239.4 (209.2–274.1) mg/kg.
